Measurements as given in PubChem BioAssay AID2060601 (Molecular Pharmacology Branch, DTP, NCI, 2025).

Test system: 874868-142-R-J2-PDC complex spheroids, growth % test/control
Assay: Anticancer human tumor 874868-142-R-J2-PDC patient-derived head and neck squamous carcinoma cell line growth inhibition [CLK]
Conditions: for IC50: curve of first compound; for viability, T/C: stronger effect = lower value
Description: A high-throughput screen of multi-cell type tumor spheroids was designed to identify active combinations of […] and targeted small molecules. Complex spheroids include a stromal component modeled by human endothelial cells (HUVEC) and fibroblasts modeled by human mesenchymal stem cells (MSCs). The concentration ranges selected for each drug and investigational agent were based upon clinically achievable concentrations if the clinical Cmax of the agent was known.
Compounds. The drugs and investigational agents: cirtuvivint (SM08502; NSC835563), CC-671 (NSC850746), vemurafenib (NSC761431), tapotoclax (NSC804041), sotorasib (NSC818433), adagrasib (NSC831453), MRTX-1133 (NSC836407), BAY2416964 (NSC825713), copanlisib (NSC816437), inavolisib (NSC800729), abemaciclib (NSC768073), osimertinib (NSC779217), entinostat (NSC756642), eltanexor (KPT-8602, NSC794443), venetoclax (NSC766270), ceralasertib (NSC777638), bortezomib (NSC756655), olaparib (NSC753686), talazoparib (NSC767125), alisertib (NSC759677), peposertib (NSC802822), gemcitabine (NSC613327), 5-fluorouracil (NSC19893), SN-38 (NSC673596), oxaliplatin (NSC266046), paclitaxel (NSC125973), and doxorubicin (NSC123127), were obtained from the National Cancer Institute (NCI) Developmental Therapeutics Program Chemical Repository. The FDA-approved anticancer drug set is available from the Developmental Therapeutics Program at https://dtp.cancer.gov/organization/dscb/obtaining/available plates.htm. […] The stock solutions were prepared in dimethyl sulfoxide (DMSO, Sigma-Aldrich, St. Louis, MO, cat. D2650), except for the platinum complexes which were prepared in saline (Quality Biological, Gaithersburg, MD, cat. 114-055-101), at 800-fold the tested concentration and stored at -70 degrees C prior to their use. All drugs and investigational agents were tested over a range starting from a high concentration at or near the clinical Cmax and decreasing in half-log increments. If the clinical Cmax for an agent had not been determined, the highest concentration tested was 10 microM.
Cell Culture. All cells were maintained in an incubator at 37 degrees C and 5% CO2 with 95% humidity. The PDC lines were cultured according to standard operating procedures established by the NCI PDMR. Briefly, all PDCs were thawed and cultured in Matrigel-coated flasks prepared with a working solution of 1X Ham's F-12 nutrient mix, without supplementation (Invitrogen, Waltham, MA, cat. 11765054), 100 U/mL penicillin-streptomycin (Invitrogen, cat. 15140122), and 2.5% Matrigel (Corning Inc., Corning, NY, cat. 354248) for the first three passages. The 947758-054-R-J2-PDC line was cultured in 6B/Colon 1A media, which includes advanced DMEM/F-12 (Thermo Fisher Scientific, cat. 12634028), 10 mM HEPES (Thermo Fisher Scientific, cat. 15630080), 1X GlutaMAX supplement (Thermo Fisher Scientific, cat. 35050061), 0.1 mg/mL primocin (InvivoGen, cat. ant-pm-2), 10% defined fetal bovine serum, heat inactivated (HyClone Laboratories Inc., cat. SH30070.03HI), 1.25 mM N-Acetyl-L-cysteine (Sigma-Aldrich, cat. A9165), 10 mM nicotinamide (Sigma-Aldrich, cat. N0636), 1X B-27 supplement (Thermo Fisher Scientific, cat. 17504044), 1X N-2 supplement (Thermo Fisher Scientific, cat. 17502048), and 10 microM Y-27632 dihydrochloride (Tocris Bioscience, cat. 1254). The 876862-298-R-J1-PDC was cultured in 6E media, which includes all 6B/Colon 1A media components plus 50% L-WRN conditioned media (ATCC, cat. CRL-3276), 50 ng/mL recombinant human EGF recombinant protein (hEGF; Thermo Fisher Scientific, cat. PHG0311), 10 ng/mL recombinant human fibroblast growth factor 10 (hGFG-10; PeproTech, cat. 100-26), 1 ng/mL recombinant human fibroblast growth factor 2 (hFGF-2; PeproTech, cat. 100-18B), and 1 µM prostaglandin E2 (PGE2; Tocris, cat. 2296). The 227483-062-R1-J1-PDC line was cultured in Panc media, containing all 6E components except hFGF-2, with the addition of 500 nM SB-431542 (Selleckchem, cat. S1067) and 10 nM gastrin (Tocris, cat. 3006). […]

[1] = second compound 0.0316 µM, first compound 0.0316 µM
[2] = second compound 0.0316 µM, first compound 0.1 µM
[3] = second compound 0.0316 µM, first compound 0.316 µM
[4] = second compound 0.0316 µM, first compound 1 µM
[5] = second compound 0.0316 µM, first compound 3.16 µM
[6] = second compound 0.0316 µM, first compound 10 µM
[7] = second compound 0.1 µM, first compound 0.0316 µM
[8] = second compound 0.1 µM, first compound 0.1 µM
[9] = second compound 0.1 µM, first compound 0.316 µM
[10] = second compound 0.1 µM, first compound 1 µM
[11] = second compound 0.1 µM, first compound 3.16 µM
[12] = second compound 0.1 µM, first compound 10 µM
[13] = second compound 0.316 µM, first compound 0.0316 µM
[14] = second compound 0.316 µM, first compound 0.1 µM
[15] = second compound 0.316 µM, first compound 0.316 µM
[16] = second compound 0.316 µM, first compound 1 µM
[17] = second compound 0.316 µM, first compound 3.16 µM
[18] = second compound 0.316 µM, first compound 10 µM
[19] = second compound 1 µM, first compound 0.0316 µM
[20] = second compound 1 µM, first compound 0.1 µM
[21] = second compound 1 µM, first compound 0.316 µM
[22] = second compound 1 µM, first compound 1 µM
[23] = second compound 1 µM, first compound 3.16 µM
[24] = second compound 1 µM, first compound 10 µM
[25] = second compound 3.16 µM, first compound 0.0316 µM
[26] = second compound 3.16 µM, first compound 0.1 µM
[27] = second compound 3.16 µM, first compound 0.316 µM
[28] = second compound 3.16 µM, first compound 1 µM
[29] = second compound 3.16 µM, first compound 3.16 µM
[30] = second compound 3.16 µM, first compound 10 µM
[31] = second compound 10 µM, first compound 0.0316 µM
[32] = second compound 10 µM, first compound 0.1 µM
[33] = second compound 10 µM, first compound 0.316 µM
[34] = second compound 10 µM, first compound 1 µM
[35] = second compound 10 µM, first compound 3.16 µM
[36] = second compound 10 µM, first compound 10 µM
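Further: spheroids exposed to the compounds for 7 days.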

How did the IC50 (second compound 0.0316 µM) turn out when `Nc1ccccc1NC(=O)c1ccc(CNC(=O)OCc2cccnc2)cc1` + CNC(=O)c1ccc(Nc2nc(OC3CCCC3)c3c(-c4ccc5nc(C)oc5c4)c[nH]c3n2)c(OC)c1 was run?
Its IC50 is 7.27 µM.

What about the IC50 (second compound 0.1 µM) of the same molecule?
Its IC50 is 7.26 µM.

What about the IC50 (second compound 0.316 µM) of the same molecule?
The IC50 was 4.8 µM.

What about the IC50 (second compound 1 µM) of the same molecule?
Its IC50 is 0.252 µM.

And the IC50 (second compound 3.16 µM)?
Its IC50 is 3.95 µM.

What about the IC50 (second compound 10 µM) of the same molecule?
Its IC50 is 3.44 µM.

What about the viability, T/C [1] of the same molecule?
Its viability, T/C is 107%.

What about the viability, T/C [2] of the same molecule?
Its viability, T/C is 87.5%.

And the viability, T/C [3]?
The viability, T/C was 110%.

And the viability, T/C [4]?
The viability, T/C was 114%.

What about the viability, T/C [5] of the same molecule?
Its viability, T/C is 109%.

And the viability, T/C [6]?
Its viability, T/C is 28.7%.

What about the viability, T/C [7] of the same molecule?
Its viability, T/C is 82.6%.

What about the viability, T/C [8] of the same molecule?
Its viability, T/C is 73.7%.

And the viability, T/C [9]?
The viability, T/C was 94.4%.

What about the viability, T/C [10] of the same molecule?
Its viability, T/C is 109%.

What about the viability, T/C [11] of the same molecule?
Its viability, T/C is 101%.

And the viability, T/C [12]?
The viability, T/C was 33.6%.

What about the viability, T/C [13] of the same molecule?
Its viability, T/C is 61.5%.

And the viability, T/C [14]?
Its viability, T/C is 61.4%.

And the viability, T/C [15]?
Its viability, T/C is 67.8%.

And the viability, T/C [16]?
The viability, T/C was 79.9%.

What about the viability, T/C [17] of the same molecule?
The viability, T/C was 88.9%.

What about the viability, T/C [18] of the same molecule?
The viability, T/C was 11.3%.

What about the viability, T/C [19] of the same molecule?
The viability, T/C was 42.4%.

And the viability, T/C [20]?
Its viability, T/C is 45%.

What about the viability, T/C [21] of the same molecule?
The viability, T/C was 52.1%.

And the viability, T/C [22]?
The viability, T/C was 66.9%.

What about the viability, T/C [23] of the same molecule?
The viability, T/C was 76.6%.

And the viability, T/C [24]?
The viability, T/C was 11.9%.

And the viability, T/C [25]?
The viability, T/C was 49.2%.

What about the viability, T/C [26] of the same molecule?
Its viability, T/C is 47%.

What about the viability, T/C [27] of the same molecule?
The viability, T/C was 56.9%.

What about the viability, T/C [28] of the same molecule?
The viability, T/C was 71.8%.

What about the viability, T/C [29] of the same molecule?
The viability, T/C was 72.1%.

And the viability, T/C [30]?
The viability, T/C was 10.8%.

And the viability, T/C [31]?
Its viability, T/C is 41.8%.

What about the viability, T/C [32] of the same molecule?
The viability, T/C was 44%.

What about the viability, T/C [33] of the same molecule?
Its viability, T/C is 49%.

What about the viability, T/C [34] of the same molecule?
The viability, T/C was 67.3%.

And the viability, T/C [35]?
Its viability, T/C is 69.2%.

And the viability, T/C [36]?
Its viability, T/C is 3.57%.

With `COc1ccc([C@@H](O)c2cc(-c3ncnc4cc(N5CCOCC5)ccc34)c(F)cc2Cl)nn1` + CN1CCN(c2cc(C(=O)Nc3cc4cc(-c5cnn(C)c5)ccc4cn3)ccn2)CC1 as the molecule, how does the IC50 (second compound 0.0316 µM) read?
Its IC50 is 1.99 µM.

What about the IC50 (second compound 0.1 µM) of the same molecule?
Its IC50 is 0.899 µM.

And the IC50 (second compound 0.316 µM)?
The IC50 was less than 0.0316 µM.

What about the IC50 (second compound 1 µM) of the same molecule?
Its IC50 is less than 0.0316 µM.

And the IC50 (second compound 3.16 µM)?
Its IC50 is less than 0.0316 µM.

And the IC50 (second compound 10 µM)?
Its IC50 is less than 0.0316 µM.

What about the viability, T/C [1] of the same molecule?
Its viability, T/C is 83.6%.

And the viability, T/C [2]?
The viability, T/C was 77.9%.

And the viability, T/C [3]?
Its viability, T/C is 74.9%.

And the viability, T/C [4]?
The viability, T/C was 70.4%.

What about the viability, T/C [5] of the same molecule?
Its viability, T/C is 36.1%.

What about the viability, T/C [6] of the same molecule?
Its viability, T/C is 32.6%.

And the viability, T/C [7]?
The viability, T/C was 71%.

And the viability, T/C [8]?
The viability, T/C was 62.7%.

And the viability, T/C [9]?
The viability, T/C was 64.5%.

And the viability, T/C [10]?
Its viability, T/C is 48.8%.

And the viability, T/C [11]?
The viability, T/C was 30.9%.

And the viability, T/C [12]?
The viability, T/C was 30.3%.

What about the viability, T/C [13] of the same molecule?
The viability, T/C was 17.3%.

And the viability, T/C [14]?
Its viability, T/C is 12.2%.

What about the viability, T/C [15] of the same molecule?
The viability, T/C was 13.4%.

And the viability, T/C [16]?
Its viability, T/C is 9.3%.

And the viability, T/C [17]?
Its viability, T/C is 14.9%.

And the viability, T/C [18]?
Its viability, T/C is 13.4%.

And the viability, T/C [19]?
The viability, T/C was 0.18%.

What about the viability, T/C [20] of the same molecule?
Its viability, T/C is 0.23%.

And the viability, T/C [21]?
Its viability, T/C is 2.66%.

And the viability, T/C [22]?
Its viability, T/C is 0.22%.

And the viability, T/C [23]?
The viability, T/C was 0.24%.

What about the viability, T/C [24] of the same molecule?
The viability, T/C was 0.33%.

What about the viability, T/C [25] of the same molecule?
The viability, T/C was 0.22%.

And the viability, T/C [26]?
The viability, T/C was 0.16%.

What about the viability, T/C [27] of the same molecule?
The viability, T/C was 3.99%.

What about the viability, T/C [28] of the same molecule?
The viability, T/C was 0.25%.

What about the viability, T/C [29] of the same molecule?
The viability, T/C was 0.23%.

And the viability, T/C [30]?
Its viability, T/C is 0.35%.

What about the viability, T/C [31] of the same molecule?
Its viability, T/C is 0.06%.

What about the viability, T/C [32] of the same molecule?
The viability, T/C was 0.15%.

What about the viability, T/C [33] of the same molecule?
The viability, T/C was 2.92%.

And the viability, T/C [34]?
Its viability, T/C is 0.15%.

What about the viability, T/C [35] of the same molecule?
Its viability, T/C is 0.22%.

And the viability, T/C [36]?
The viability, T/C was 3.6%.
